One data set deals with NFE2L2 gene. Put plainly: Screening of SureKill guide RNAs in the NFE2L2 gene for ability to induce indels. Type of data set: cell-based, Human. To be noted: transfections of individual guide RNAs (spCas9 RNP); NCI-H1703 clone 44-25 cells; DECODR. On the procedure: (§1) Human lung squamous cell carcinoma NCI-H1703 clone 44-25 cells were derived from NCI-H1703 cells (#CRL-5889) which were purchased from ATCC (Manassas, VA, USA). NCI-H1703 clone 44-25 cells contains R34G mutation (C 4 G) in NFE2L2 gene. H1703 clone 44-25 cells were cultured in ATCC formulation RPMI-1640 with 10% FBS. T75 flasks were used and cells were split 1:5 upon reaching 90% confluency. Human lung adenocarcinoma cells (Dist. Lot. No. LG0703-F948-PDC) were acquired from the National Institute of Health's National Cancer Institute's Patient-Derived Models Repository (PDMR). This PDMR cell line contains the L858R mutation (T 4 G) in the EGFR gene. The PDMR cells were maintained in Advanced DMEM/F12 media containing 10% FBS, 0.4 μg/mL hydrocortisone, 0.01 μg/mL EGF Recombinant Human Protein, 24 μg/mL adenine, and 2 mM L-Glutamine. T75s were used and cells were split 1:3 upon reaching 90% confluency. All cultures were maintained in cell culture incubators at 37° C. and 5% CO2.
(§2) Ribonucleoproteins (RNP) are complexed by incubating 250 pmol of purified synthetic gRNA (Synthego Corporation, Redwood City, CA) with 50 pmol of purified spCas9 (Synthego Corporation, Redwood City, CA) at room temperature in nuclease-free 1× TE buffer for 15 minutes.
(§3) Transfections were carried out using the Lonza Nuclefector 4d. Cultures in t75s at 90% confluence were split 1:2 24 hours prior to transfection. RNPs were complexed at 250:50 pmol for 30 minutes prior to transfection, during which time cells were harvested and counted. All reactions were 100 μL and contained 1 e6 cells. Lonza SF solution and Nucleofector program CM-130 were used in all transfections of the H1703 cell line. Lonza SE solution and Nucleofector program CA-137 were used in all transfections of the PDMR. After transfection, 500 μL of media that had been equilibrated to cell culture CO2 and temperature conditions was added to each 100 μL cuvettes. Cuvettes were then placed in the incubator. After 20 minutes, the entire content of each cuvette was seeded into 3 mL of media in a 6 well plate. After 72 hours, samples were dissociated using 200 μL Trypsin 0.25% for 5 minutes. 800 μL culture media was used to quench and split into 1.5 mL tubes each containing 500 μL of the sample. Tubes were spun at 300×g for 5 minutes. One of the tubes was placed in the −20° C. freezer and the other was resuspended in 500 μL of Trizol for RNA extraction and cDNA synthesis.
(§4) All sequencing was performed on the Applied Biosystems SeqStudio. The BigDye Terminator v3.1 Cycle Sequencing Kit was used to prepare samples for sequencing. Resulting sequences were analyzed with DECODR to determine indel rates (Bloh et al., CRISPR J. 4:120-31 (2021)).
In some cancers, human NRF2 contains a mutation, R34G, that creates a novel PAM site making it a targetable sequence by CRISPR. By combining the R34G-targeting CRISPR with another CRISPR of high efficiency in a downstream intronic region, exon skipping can be induced, resulting in a higher efficiency of functional knockout than the R34G targeting CRISPR alone. To find a suitable SureKill guide RNA (gRNA) to pair with the R34G targeting CRISPR, we selected the intron between exons 3 and 4 (FIG. 2). A series of gRNAs were created in this region and screened for their ability to induce indels, a measure of their activity (Table 2).
In Table 2, all sequences are listed from 5′ to 3′. Indel %, a measure of CRISPR activity, is based on transfections of individual guide RNAs. All guide RNAs, with the exception of R34G, were designed in the intron between exons 3 and 4.

A further data set deals with EGFR gene. Put plainly: Screening of SureKill guide RNAs in the EGFR gene for ability to induce indels. Type of data set: cell-based. To be noted: transfections of individual guide RNAs (spCas9 RNP); PDMR human lung adenocarcinoma cells with EGFR L858R; DECODR. On the procedure:
as §1, §2, §3, §4
Human EGFR is a frequently mutated gene that is associated with cancers. One of the most common mutations is L858R which results in the creation of a novel PAM site, making it a targetable sequence by CRISPR. Like the R34G mutation, the CRISPR designed to target the L858R mutation is not highly efficient on its own. By combining the L858R-targeting CRISPR with another CRISPR of high efficiency in a downstream intronic region, exon skipping can be induced, resulting in a higher efficiency of functional knockout than the L858R targeting CRISPR alone. To find a suitable gRNA to pair with the L858R targeting CRISPR, we selected the intron between exons 21 and 22 (FIG. 6). A series of gRNAs were created in this region and screened for their ability to induce indels, a measure of their activity using DECODR (Bloh et al., CRISPR J. 4:120-31 (2021)) (Table 3).
In Table 3, all sequences are listed from 5′ to 3′. Indel percent, a measure of CRISPR activity, is based on transfections of individual guide RNAs. All guide RNAs, with the exception of L858R, were designed in the intron between exons 21 and 22.

Another data set concerns NRF2. Briefly: cDNA PCR analysis of exon skipping / full-size transcript in NFE2L2. The format is cell-based, Human. The following applies: gRNA individually applied in the CRISPR reaction; NCI-H1703 clone 44-25 cells. As to the method: After CRISPR reactions, total RNA was prepared, and cDNA synthesized for PCR amplification of the target region from NRF2. PCR-amplified DNA was then analyzed by electrophoresis through a 1% agarose gel for 75 minutes at 80v. DNA was stained with SYBR Safe. Lanes 1 and 10: NEB 2 Log Ladder; Lane 2: Scrambled gRNA; Lane 3: NRF2 3-4 SureKill gRNA 3 alone; Lane 4: NRF2 3-4 SureKill gRNA 12 alone; Lane 5: NRF2 3-4 SureKill gRNA 14 alone; Lane 6: NRF2 3-4 SureKill gRNA 15 alone; Lane 7: NRF2 3-4 SureKill gRNA 21 alone; Lane 8: NRF2 3-4 SureKill gRNA 25 alone; Lane 9: NRF2 3-4 SureKill gRNA 26 alone. On the left side of the image are markers indicating DNA size in bp.
After CRISPR reactions, total RNA was prepared, and cDNA synthesized for PCR amplification of the target region from NRF2. PCR-amplified DNA was then analyzed by electrophoresis through a 1% agarose gel for 75 minutes at 80v. DNA was stained with SYBR Safe. Lane 1: NEB 2 Log Ladder; Lane 2: Scrambled gRNA; Lane 3: R34G gRNA alone; Lane 4: NRF2 3-4 SureKill gRNA 3+R34G gRNA; Lane 5: NRF2 3-4 SureKill gRNA+R34G gRNA; Lane 6: NRF2 3-4 SureKill gRNA 14+R34G gRNA. […]
Transfections were carried out using the Lonza Nuclefector 4d. […] RNPs were complexed at 250:50 pmol for 30 minutes prior to transfection, during which time cells were harvested and counted. […]

With “NRF2 3-4 SureKill gRNA 29b: NRF2 intron 3-4 guide RNA GATTTATGAGTCTTCCACCAAC, SEQ ID NO:31 (listed as DNA, chemistry not given here)”, the indel % in the data set with NFE2L2 gene is listed as 11.8%.

As to “EGFR 21-22 SureKill gRNA 10A: EGFR intron 21-22 guide RNA GTTTAACACATGCAGGGG, SEQ ID NO:35 (listed as DNA, chemistry not given here)”, the indel % with EGFR gene is 0%.

For “NRF2 3-4 SureKill gRNA 26: NRF2 intron 3-4 guide RNA GCTTACTCATCCCCTGTTGG, SEQ ID NO:28 (listed as DNA, chemistry not given here)”, the “exon skipping (cDNA analysis)” value with NRF2 is on record as “some level of exon skipping”. The same substance showed an indel % in the data set with NFE2L2 gene of 89.65%.

For the substance “NRF2 3-4 SureKill gRNA 10: NRF2 intron 3-4 guide RNA GGTTTTGTATTGTGTGAA, SEQ ID NO:15 (listed as DNA, chemistry not given here)”, the indel % in the data set with NFE2L2 gene was determined as 32.2%.

The substance “NRF2 3-4 SureKill gRNA 32: NRF2 intron 3-4 guide RNA GGTTATGCTGTCCATGTTTC, SEQ ID NO:34 (listed as DNA, chemistry not given here)” returned an indel % in the data set on NFE2L2 gene of 47.8%.

With “EGFR 21-22 SureKill gRNA 2: EGFR intron 21-22 guide RNA GTATTGTTTAACACATGCAG, SEQ ID NO:10 (listed as DNA, chemistry not given here)”, the indel % in the data set with EGFR gene is listed as 2%.

As to “EGFR 21-22 SureKill gRNA 10B: EGFR intron 21-22 guide RNA GTATTGTTTAACACATGCAGGGG, SEQ ID NO:36 (listed as DNA, chemistry not given here)”, in the data set with EGFR gene, the indel % amounted to 0%.

“EGFR 21-22 SureKill gRNA 29: EGFR intron 21-22 guide RNA GTTAAACAATACAGCTAGT, SEQ ID NO:52 (listed as DNA, chemistry not given here)”: in the data set on EGFR gene, the indel % amounted to 100%.

In turn, “NRF2 3-4 SureKill gRNA 31: NRF2 intron 3-4 guide RNA GTTTGGTGAGTAAAGAGCCAGC, SEQ ID NO:33 (listed as DNA, chemistry not given here)” registered an indel % in the data set on NFE2L2 gene of 14.55%.

Take “NRF2 3-4 SureKill gRNA 29a: NRF2 intron 3-4 guide RNA GATTCCATTTTGTTTTGTAG, SEQ ID NO:30 (listed as DNA, chemistry not given here)”: the indel % in the data set on NFE2L2 gene was found to be 11.85%.

Consider “EGFR 21-22 SureKill gRNA 23: EGFR intron 21-22 guide RNA GCATTTTCCTGACACCAGGGACC, SEQ ID NO:47 (listed as DNA, chemistry not given here)”, for which the indel % in the data set on EGFR gene is given as 96.15%.

The record behind these values is patent US12171813B2, “Methods of and compositions for reducing gene expression and/or activity” (Christiana Care Gene Editing Institute, Inc., priority 2021, dated 2024).
